Data on two molecules can be found in US20110039770A1, “INHIBITORS OF PROTEIN KINASE C ISOFORMS AND USES THEREOF” (PHARMAGAP INC., priority 2005, published 2011).

Structures are written as SMILES. Where a SMILES comes first, the peptide text is derived from it. The star is where a group is joined. PNA(A) = NCCN(CC(=O)*)C(=O)Cn1cnc2c(N)ncnc21

One data set concerns the target PKC beta 1 (Homo sapiens, UniProt P05771). Description: PKC isoform protein levels in cancer cell lines after TIM 10 (Western blot). Type of data set: cell-based. Details: endogenous in cells. Conditions: 5 mM by pinocytic influx, 24 hrs. The method, then:
(§1) The effect of compound TIM 10 on the levels of protein for various PKC isoforms was assessed as generally described below in the following human cancer cell lines: MDA MB-231 breast adenocarcinoma cells (ATCC HTB-26); T24 bladder transitional cell carcinoma (ATCC HTB-4); SKOV-3 ovary adenocarcinoma (ATCC HTB-77); MCF-7 breast adenocarcinoma (ATCC HTB-22); Capan-2 pancreatic adenocarcinoma (ATCC HTB-80); NCI-H661 NSCL large cells (ATCC HTB-183); Calu-6 probable lung anaplastic carcinoma (ATCC HTB-56) and Calu-3 lung adenocarcinoma (ATCC HTB-55).
(§2) Cells representative of the different cancer types were cultured according to ATCC instructions. At subconfluence, the cells were trypsinized and compound 10 (5 mM) was incorporated into the cells by pinocytic influx endocytosis according to the manufacturer's instructions (Molecular Probe). Matching controls were treated accordingly except that vehicle was incorporated instead of compound 10. Following pinocytic influx, the cells were seeded and allowed to grow in fresh medium for 24 hrs. The cell cultures were further extracted using RIPA lysis buffer according to standard protocol. The protein content of each lysate was measured using Bradford protein estimation procedure (BioRad) and normalized. Following addition of sample buffer, the proteins from 15 μl of each extract were separated by electrophoresis, electro-transferred to nitrocellulose membranes and the various isoforms of PKC were detected using appropriate antibodies (Santa Cruz Biotechnology, Inc., CA). The relative intensity of bands of the expected molecular weight was estimated after scanning and the % decrease in the band intensity relative to control was calculated.

In the next data set the target is T1, PKC zeta (Homo sapiens, UniProt Q05513).
T1 sequence (Q05513 1-592): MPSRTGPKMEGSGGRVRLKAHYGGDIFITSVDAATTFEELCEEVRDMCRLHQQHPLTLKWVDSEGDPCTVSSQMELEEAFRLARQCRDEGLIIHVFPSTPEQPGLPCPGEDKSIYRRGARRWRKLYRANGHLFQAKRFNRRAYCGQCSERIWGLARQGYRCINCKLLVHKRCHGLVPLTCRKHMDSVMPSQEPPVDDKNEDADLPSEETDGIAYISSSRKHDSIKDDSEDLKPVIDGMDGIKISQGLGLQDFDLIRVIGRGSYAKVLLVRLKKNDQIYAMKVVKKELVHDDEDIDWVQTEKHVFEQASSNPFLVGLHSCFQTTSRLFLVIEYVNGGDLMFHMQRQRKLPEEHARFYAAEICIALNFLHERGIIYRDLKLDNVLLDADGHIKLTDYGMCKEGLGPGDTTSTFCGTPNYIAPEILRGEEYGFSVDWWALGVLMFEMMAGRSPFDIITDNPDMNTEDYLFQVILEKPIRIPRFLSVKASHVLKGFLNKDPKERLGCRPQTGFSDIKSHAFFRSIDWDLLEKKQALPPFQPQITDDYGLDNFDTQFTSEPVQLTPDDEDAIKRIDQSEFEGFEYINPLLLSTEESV
The description is as above. Type of data set: cell-based. Set-up: endogenous in cells. The following applies: 5 mM by pinocytic influx, 24 hrs. The method, then:
as §1, §2

The next data set has as its target PKC delta (Homo sapiens, UniProt Q05655). The data set is described as above. Type of data set: cell-based. Details: endogenous in cells. The following applies: 5 mM by pinocytic influx, 24 hrs. The method, then:
as §1, §2

Another data set deals with T2, PKC epsilon (Homo sapiens, UniProt Q02156).
T2 sequence (Q02156 1-737): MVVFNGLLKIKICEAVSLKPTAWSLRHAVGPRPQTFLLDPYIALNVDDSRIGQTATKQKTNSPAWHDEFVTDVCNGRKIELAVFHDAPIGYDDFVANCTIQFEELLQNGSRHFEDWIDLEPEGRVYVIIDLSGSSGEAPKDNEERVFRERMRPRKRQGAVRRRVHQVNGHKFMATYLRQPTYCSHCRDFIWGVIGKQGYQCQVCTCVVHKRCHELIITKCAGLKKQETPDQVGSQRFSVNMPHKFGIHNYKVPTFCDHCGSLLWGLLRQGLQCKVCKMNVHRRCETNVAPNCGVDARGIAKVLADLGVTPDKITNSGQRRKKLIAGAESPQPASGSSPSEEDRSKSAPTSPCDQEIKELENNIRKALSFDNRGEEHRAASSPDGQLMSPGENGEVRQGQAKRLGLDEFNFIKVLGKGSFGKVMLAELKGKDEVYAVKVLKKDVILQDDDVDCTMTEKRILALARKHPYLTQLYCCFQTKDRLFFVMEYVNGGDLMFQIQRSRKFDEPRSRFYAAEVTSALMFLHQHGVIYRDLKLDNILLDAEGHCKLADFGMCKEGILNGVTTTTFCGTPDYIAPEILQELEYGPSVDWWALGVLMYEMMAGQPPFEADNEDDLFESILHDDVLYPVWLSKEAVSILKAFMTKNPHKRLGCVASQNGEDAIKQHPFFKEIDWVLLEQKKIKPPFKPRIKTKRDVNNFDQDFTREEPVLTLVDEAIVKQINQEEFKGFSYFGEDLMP
Described as above. Type of data set: cell-based. Details: endogenous in cells. The following applies: 5 mM by pinocytic influx, 24 hrs. Here is the method: as §1, §2

The test system of data set [1] is peripheral blood lymphocytes. Description: Peripheral blood lymphocyte survival and blastogenic response to mitogens. Type of data set: cell-based. The following applies: primary lymphocytes of pigs, mice and human.
For a further data set, the target named is T3, PKC-β (Homo sapiens, UniProt P05771).
T3 construct: PRE 2 and PRE 3 in IMR-32 Neuroblastoma Cells: Protocol A; endogenous in cells; host or cells: IMR-32 human neuroblastoma cells
In words: Competition of PRE with PKC-β antibody binding, Protocol B, IMR-32. Here is the method:
The ability of the peptides PRE 2 and PRE 3 (see Table 4) to interfere with the binding of a PKC-α-specific polyclonal antibody (Santa Cruz Biotechnology, Inc.) to PKC-α was determined using a modified version of the protocol outlined above in which the test peptide was added directly to the cell extract prior to electrophoresis at a concentration of either 5× or 15× the concentration of the protein applied to each well of the gel for the Western blots (20 μg).
Peptides PRE 2 and PRE 3 (see Table 4) were tested for their ability to interfere with the binding of a PKC-β-specific polyclonal antibody (Santa Cruz Biotechnology, Inc.) to PKC-β using the general protocol described in Example 3.

Chain of PKC delta (Q05655 whole entry): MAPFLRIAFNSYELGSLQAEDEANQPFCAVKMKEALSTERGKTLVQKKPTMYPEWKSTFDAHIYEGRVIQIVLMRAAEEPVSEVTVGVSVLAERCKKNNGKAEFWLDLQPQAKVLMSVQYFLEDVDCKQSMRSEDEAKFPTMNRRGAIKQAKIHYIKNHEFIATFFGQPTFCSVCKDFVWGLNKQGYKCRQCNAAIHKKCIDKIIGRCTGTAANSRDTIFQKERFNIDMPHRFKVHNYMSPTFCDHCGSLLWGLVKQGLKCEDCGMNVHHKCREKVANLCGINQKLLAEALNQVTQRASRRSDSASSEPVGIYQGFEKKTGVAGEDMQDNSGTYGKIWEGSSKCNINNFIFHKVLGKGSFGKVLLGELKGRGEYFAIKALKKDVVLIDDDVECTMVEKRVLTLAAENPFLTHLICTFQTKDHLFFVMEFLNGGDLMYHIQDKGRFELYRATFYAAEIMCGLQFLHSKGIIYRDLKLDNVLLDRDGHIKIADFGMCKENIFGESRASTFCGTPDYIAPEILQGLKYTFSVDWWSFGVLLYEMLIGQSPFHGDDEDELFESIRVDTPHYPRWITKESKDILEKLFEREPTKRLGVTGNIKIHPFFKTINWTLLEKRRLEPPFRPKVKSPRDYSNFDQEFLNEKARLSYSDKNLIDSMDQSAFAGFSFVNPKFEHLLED
Chain of PKC beta 1 (P05771 whole entry, canonical isoform): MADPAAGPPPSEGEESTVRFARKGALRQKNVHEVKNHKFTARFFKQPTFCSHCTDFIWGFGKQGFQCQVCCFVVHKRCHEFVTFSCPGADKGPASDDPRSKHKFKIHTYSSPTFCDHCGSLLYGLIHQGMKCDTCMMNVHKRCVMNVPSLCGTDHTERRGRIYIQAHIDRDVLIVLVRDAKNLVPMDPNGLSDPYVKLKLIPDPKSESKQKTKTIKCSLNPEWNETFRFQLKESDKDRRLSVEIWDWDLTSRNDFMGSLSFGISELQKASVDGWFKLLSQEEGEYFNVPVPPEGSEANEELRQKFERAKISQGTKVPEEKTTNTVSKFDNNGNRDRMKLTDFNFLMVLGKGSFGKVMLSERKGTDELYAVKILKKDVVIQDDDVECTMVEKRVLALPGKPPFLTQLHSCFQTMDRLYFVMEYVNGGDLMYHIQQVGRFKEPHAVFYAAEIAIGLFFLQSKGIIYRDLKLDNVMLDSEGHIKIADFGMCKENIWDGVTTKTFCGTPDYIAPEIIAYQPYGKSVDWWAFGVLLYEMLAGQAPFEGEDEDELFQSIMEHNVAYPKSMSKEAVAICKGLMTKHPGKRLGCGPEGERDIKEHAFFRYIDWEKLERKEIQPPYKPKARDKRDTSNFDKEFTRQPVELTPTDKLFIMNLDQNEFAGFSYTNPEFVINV
T3 sequence (P05771 whole entry): as the sequence (P05771 whole entry, canonical isoform) above

For the molecule `CC[C@H](C)[C@H](NC(=O)[C@H](CO)NC(=O)[C@@H](NC(=O)CNC(=O)[C@@H](NC(=O)[C@H](CC(C)C)NC(=O)[C@H](CC(N)=O)NC(=O)[C@H](CCC(N)=O)NC(=O)[C@H](C)NC(=O)[C@H](CC(=O)O)NC(=O)[C@H](CCCCN)NC(=O)CNC(=O)CNC(=O)CNC(=O)CNC(=O)CNC(=O)CNC(=O)CNC(=O)[C@H](CC(C)C)NC(=O)[C@H](CCCNC(=N)N)NC(=O)[C@H](Cc1ccccc1)NC(=O)[C@H](CCCCNC(=O)CN(CCN)C(=O)Cn1cnc2c(N)ncnc21)NC(=O)[C@H](CCCNC(=N)N)NC(=O)[C@H](CCCNC(=N)N)NC(=O)[C@H](Cc1ccccc1)NC(C)=O)[C@@H](C)CC)[C@@H](C)CC)C(N)=O` [TIM 10] (Ac-FRRK(PNA(A))FRLGGGGGGGKDAQNLIGISI-NH2), the “% decrease PKC-βI band intensity relative to control” value is 17.5% on PKC beta 1 (Capan-2), 3.0% on PKC beta 1 (H661), 0.0% at PKC beta 1 (MCF-7) and 0.0% on PKC beta 1 (MDA-MB231). The “% decrease PKC-ζ band intensity relative to control” value worked out at 0.0% on PKC zeta (Capan-2), 7.3% at PKC zeta (MCF-7), 0.0% on PKC zeta (MDA-MB231) and 0.0% on PKC zeta (T24). For the same molecule, the “% decrease PKC-ζ band intensity relative to control, Band 1” value at PKC zeta (H661, Band 1) is 13.4%. In addition, the “% decrease PKC-ζ band intensity relative to control, Band 2” value at PKC zeta (H661, Band 2) is 0.0%. Also, the “% decrease PKC-δ band intensity relative to control” value on PKC delta (Calu-3) is given as 22.2%; on PKC delta (Calu-6), 18.9%; on PKC delta (Capan-2), 53.3%; at PKC delta (H661), 0.0%; at PKC delta (MCF-7), 21.5%; on PKC delta (MDA-MB231) it was 36.6%. Also, the “% decrease PKC-δ band intensity relative to control” value on PKC delta (SK-OV-3) is on record as 0.0%; at PKC delta (T24) it was 62.2%. The “% decrease PKC-ε band intensity relative to control” value on PKC epsilon (Capan-2), on PKC epsilon (MCF-7) and at PKC epsilon (MDA-MB231) was 0.0% each time. For the same molecule, the “apoptosis of peripheral blood lymphocytes” value in data set [1] is given as “do not induce apoptosis”. The “blastogenic response to mitogens” value in data set [1] is reported as “do not drastically limit the blastogenic response”.
In the case of `CC[C@H](C)[C@H](NC(=O)[C@H](CO)NC(=O)[C@@H](NC(=O)CNC(=O)[C@@H](NC(=O)[C@H](CC(C)C)NC(=O)[C@H](CC(N)=O)NC(=O)[C@H](CCC(N)=O)NC(=O)[C@H](C)NC(=O)[C@H](CC(=O)O)NC(=O)CNC(=O)CNC(=O)[C@H](CCCCN)NC(=O)[C@@H](NC(=O)[C@H](CCC(=O)O)NC(=O)[C@H](CCC(N)=O)NC(=O)[C@@H](NC(=O)CNC(=O)[C@H](CCCCN)NC(=O)[C@H](C)NC(C)=O)[C@@H](C)CC)C(C)C)[C@@H](C)CC)[C@@H](C)CC)C(N)=O` [PRE 3] (Ac-AKGIQEVKGGDAQNLIGISI-NH2), the “Band Intensity” value at PKC-β (100 μg), on PKC-β (200 μg) and at PKC-β (300 μg) was 0.0 each time. The “Relative Intensity (%)” value at PKC-β (100 μg) and at PKC-β (300 μg) was 0.0% throughout.
